Source: patent US20060276407A1, “Methods of treating hepatitis C virus” (Schering Corporation, priority 2005, published 2006)
Values joined by “and” are separate entries in the source; they are usually repeats but may differ in a detail not shown here. Equal entries are not always repeated. Where two headings read alike, the source gives them in different places.

Assay: Food-effect crossover bioavailability study, 600 mg fed vs fasted, healthy adult subjects (Example 2)
Assay type: in vivo, human
Details: for Plasma concentration at 8 hours / Plasma concentration at 12 hours: individual subjects; for concentration at 8 hours / concentration at 12 hours / Vd/F / AUC / Cmax / half-life / Tmax: both sexes, human, plasma, po, 600 mg; for half-life: read-out: t½ (converted); for Tmax: median (range)
Method: This was a randomized, open-label, single-dose, two-treatment (fed or fasted), two-period, two-sequence crossover study of the effect of food on the bioavailability of compound of Formula Ia in 23 healthy adult male and female subjects. The primary pharmacokinetic parameters were AUC(l) and Cmax for compound of Formula Ia. The study included a 7-day wash-out period between treatment periods.
Subjects were confined at the study site at least 14 hours prior to each treatment (Day −1). On the morning of Day 1, following a 10-hour overnight fast, subjects were randomized to receive in a particular order Treatment A and Treatment B: • Treatment A: compound of Formula Ia 600 mg (6×100 mg capsules) PO following an overnight fast. • Treatment B: compound of Formula Ia 600 mg (6×100 mg capsules) PO within 20 minutes following the completion of a standard high-fat breakfast. There was a 7-day wash-out period between receiving treatments.
Subjects receiving Treatment A received a formulation of compound of Formula Ia comprised of compound of Formula Ia and a pharmaceutically acceptable carrier, such as microcrystalline cellulose, while continuing to fast, while subjects randomized to Treatment B consumed a standardized high-fat meal prior to compound administration (within 20 minutes prior to the compound administration). The capsules along with approximately 240 mL of water were swallowed whole, not chewed or crushed. […] Water was permitted as desired except for 1 hour before and after compound administration. A washout period of at least 7 days separated the two treatment periods. Upon return to the clinic, subjects underwent the same procedures as the first period and continued the randomization sequence (subjects who received compound of Formula Ia fasted in Period 1 and then received compound of Formula Ia under fed conditions in Period 2, and vice versa).
Blood samples (7 mL each) for the determination of compound of Formula Ia levels were drawn immediately prior to dosing (0 hour), and at 0.5, 1, 1.5, 2, 2.5, 3, 4, 5, 6, 8, 12, 24, 36, and 48 hours after dosing. The blood samples were collected into tubes containing EDTA. The samples were centrifuged at 1500 g for 10 minutes to obtain plasma and the plasma samples were frozen at −20° C. and maintained in the frozen state until assayed.
Plasma concentrations of compound of Formula Ia were determined using a validated liquid chromatography tandem mass spectrometry (LC-MS/MS) method. The assay lower limit of quantitation (LLOQ) was 0.50 ng/mL and the method was validated over the concentration range of 0.50 to 1000 ng/mL.
The mean and percent coefficient of variation (% CV) were calculated for plasma concentrations of compound of Formula Ia at each time point. Concentration values less than the assay LLOQ were reported as, and set to zero in the tables and calculations. The plasma concentration-time data for compound of Formula Ia were subjected to pharmacokinetic analysis by noncompartmental methods using WinNonlin software. Nominal sampling times were used for pharmacokinetic analysis, since none of the pharmacokinetic sampling time deviations were >10% of the nominal times. For each subject, the following pharmacokinetic parameters were determined for compound of Formula Ia: maximum plasma concentration (Cmax), time of maximum observed plasma concentration (Tmax), the final quantifiable sampling time (tf), area under the plasma concentration-time curve from time 0 to tf (AUC[tf]), AUC(l) (AUC[tf]+ C[tf]estimated/K) and Vd/F. The K and C(tf)estimated are defined as terminal elimination rate constant and estimated concentration at final quantifiable sample, respectively. Terminal phase half-life (t½=ln 2/K) and apparent clearance (CLUF=Dose/AUC[l]) were also determined. Cmax, Tmax and tf were the observed values. […]

[1] = 600 mg PO, fasted, mean, balanced data
[2] = 600 mg PO, fed (high-fat breakfast), mean, balanced data
[3] = 600 mg PO, standardized high-fat meal

Compound: CC(C)(C)NC(=O)N[C@H](C(=O)N1C[C@H]2[C@@H]([C@H]1C(=O)NC(CC1CCC1)C(=O)C(N)=O)C2(C)C)C(C)(C)C (mixture of isomers) [Formula Ia, (1 R, 5S)-N-[3-Amino-1-(Cyclobutylmethyl)-2,3-Dioxopropyl]-3-[2(S)-[[[(1,1-Dimethylethyl)Amino]Carbonyl]Amino]-3,3-Dimethyl-1-Oxobutyl]-6,6-Dimethyl-3-Azabicyclo[3.1.0]Hexan-2(S)-Carboxamide]
- Apparent mean Vd/F, fed versus fasted states (600 mg PO): about five
- Median concentration at the 8-hour time point, fed state relative to fasted state (600 mg PO): more than 4 fold
- Median concentration at the 12-hour time point, increase in fed state relative to fasted state (600 mg PO): 2 fold
- AUC(l) Ratio Estimate (fed to fasted) (600 mg PO, Female (n = 10)): 225%
- AUC(tf) Ratio Estimate (fed to fasted) (600 mg PO, Female (n = 10)): 229%
- Cmax Ratio Estimate (fed to fasted) (600 mg PO, Female (n = 10)): 170%
- AUC(l) Ratio Estimate (fed to fasted) (600 mg PO, Male (n = 10)): 202%
- AUC(tf) Ratio Estimate (fed to fasted) (600 mg PO, Male (n = 10)): 205%
- Cmax Ratio Estimate (fed to fasted) (600 mg PO, Male (n = 10)): 155%
- Plasma concentration at 8 hours (600 mg PO, fasted): 37.5 ng/mL and 18.7 ng/mL and 37.4 ng/mL and 13.4 ng/mL and 77.9 ng/mL and 39.0 ng/mL and 46.6 ng/mL and 50.0 ng/mL and 66.8 ng/mL and 19.3 ng/mL and 8.50 ng/mL and 27.3 ng/mL and 24.8 ng/mL and 24.1 ng/mL and 81.3 ng/mL and 58.0 ng/mL and 33.5 ng/mL and 28.7 ng/mL and 27.8 ng/mL
- Plasma concentration at 12 hours (600 mg PO, fasted): 20.9 ng/mL and 8.12 ng/mL and 27.0 ng/mL and 4.90 ng/mL and 21.3 ng/mL and 16.3 ng/mL and 18.3 ng/mL and 20.6 ng/mL and 11.4 ng/mL and 4.46 ng/mL and 3.11 ng/mL and 13.2 ng/mL and 9.56 ng/mL and 19.6 ng/mL and 26.6 ng/mL and 14.3 ng/mL and 9.33 ng/mL and 9.50 ng/mL and 10.7 ng/mL
- CL/F [1]: 393 L/h
- CL/F [2]: 179 L/h
- Plasma concentration at 8 hours (600 mg PO, fed): 33.8 ng/mL and 62.2 ng/mL and 190 ng/mL and 92.4 ng/mL and 442 ng/mL and 81.4 ng/mL and 54.3 ng/mL and 675 ng/mL and 392 ng/mL and 949 ng/mL and 46.1 ng/mL and 426 ng/mL and 283 ng/mL and 55.6 ng/mL and 164 ng/mL and 612 ng/mL and 54.8 ng/mL and 447 ng/mL and 33.6 ng/mL
- Plasma concentration at 12 hours (600 mg PO, fed): 7.34 ng/mL and 11.2 ng/mL and 27.8 ng/mL and 13.6 ng/mL and 37.2 ng/mL and 13.9 ng/mL and 33.5 ng/mL and 384 ng/mL and 184 ng/mL and 54.2 ng/mL and 6.70 ng/mL and 22.2 ng/mL and 140 ng/mL and 10.4 ng/mL and 87.3 ng/mL and 109 ng/mL and 9.17 ng/mL and 48.8 ng/mL and 7.09 ng/mL
- AUC(l) Ratio Estimate (fed to fasted) (600 mg PO, n = 20): 214%
- AUC(tf) Ratio Estimate (fed to fasted) (600 mg PO, n = 20): 217%
- Cmax Ratio Estimate (fed to fasted) (600 mg PO, n = 20): 162%
- Increase of Cmax in the fed state [3]: 62%
- Increase of mean relative bioavailability (AUC) in the fed state relative to fasted [3]: over 100%
- Safety profile (treatment emergent and treatment related AEs) (600 mg oral dose, both fed and fasted states): low frequency of treatment emergent and treatment related AEs
- concentration at 8 hours (600 mg PO, fasted, Max): 81.3 ng/mL
- concentration at 12 hours (600 mg PO, fasted, Max): 27 ng/mL
- concentration at 8 hours (600 mg PO, fasted, Min): 8.5 ng/mL
- concentration at 12 hours (600 mg PO, fasted, Min): 3.11 ng/mL
- concentration at 8 hours (600 mg PO, fasted, mean): 37.9 ng/mL
- concentration at 12 hours (600 mg PO, fasted, mean): 14.2 ng/mL
- Vd/F [1]: 6730 L
- AUC (600 mg PO, fasted, mean, balanced data, read-out: AUC(l)): 1750 ng·h/mL
- AUC (600 mg PO, fasted, mean, balanced data, read-out: AUC(tf)): 1720 ng·h/mL
- Cmax (600 mg PO, fasted, mean, balanced data, read-out: Cmax): 448 ng/mL
- half-life [1]: 12 h
- concentration at 8 hours (600 mg PO, fasted, median): 33.5 ng/mL
- concentration at 12 hours (600 mg PO, fasted, median): 13.2 ng/mL
- Tmax (600 mg PO, fasted, balanced data): 2 h
- AUC (600 mg PO, fasted, n = 20, read-out: AUC(l), model-based (least square) mean): 1650 ng·h/mL
- AUC (600 mg PO, fasted, n = 20, read-out: AUC(tf), model-based (least square) mean): 1620 ng·h/mL
- Cmax (600 mg PO, fasted, n = 20, read-out: Cmax, model-based (least square) mean): 418 ng/mL
- Vd/F [2]: 1150 L
- AUC (600 mg PO, fed (high-fat breakfast), mean, balanced data, read-out: AUC(l)): 3700 ng·h/mL
- AUC (600 mg PO, fed (high-fat breakfast), mean, balanced data, read-out: AUC(tf)): 3660 ng·h/mL
- Cmax (600 mg PO, fed (high-fat breakfast), mean, balanced data, read-out: Cmax): 790 ng/mL
- half-life [2]: 4.72 h
- Tmax (600 mg PO, fed (high-fat breakfast), balanced data): 5 h
- concentration at 8 hours (600 mg PO, fed, Max): 949 ng/mL
- concentration at 12 hours (600 mg PO, fed, Max): 384 ng/mL
- concentration at 8 hours (600 mg PO, fed, Min): 33.6 ng/mL
- concentration at 12 hours (600 mg PO, fed, Min): 6.7 ng/mL
- concentration at 8 hours (600 mg PO, fed, mean): 268 ng/mL
- concentration at 12 hours (600 mg PO, fed, mean): 63.5 ng/mL
- concentration at 8 hours (600 mg PO, fed, median): 164 ng/mL
- concentration at 12 hours (600 mg PO, fed, median): 27.8 ng/mL
- AUC (600 mg PO, fed, n = 20, read-out: AUC(l), model-based (least square) mean): 3530 ng·h/mL
- AUC (600 mg PO, fed, n = 20, read-out: AUC(tf), model-based (least square) mean): 3500 ng·h/mL
- Cmax (600 mg PO, fed, n = 20, read-out: Cmax, model-based (least square) mean): 678 ng/mL
